Results on 14 compounds are retold here after ChEMBL document CHEMBL1201862, “PubChem BioAssay data set” (2004).

For orientation: IC50 means the concentration that gives 50% inhibition. For orientation: EC50 means the concentration needed to bring the measured effect to its halfway point. The term AC50 denotes the midpoint of the concentration-response curve, whichever way the signal moves.

The target in assay [1] is T1, Mannose-6-phosphate isomerase (Homo sapiens, UniProt P34949).
T1 sequence (P34949 whole entry): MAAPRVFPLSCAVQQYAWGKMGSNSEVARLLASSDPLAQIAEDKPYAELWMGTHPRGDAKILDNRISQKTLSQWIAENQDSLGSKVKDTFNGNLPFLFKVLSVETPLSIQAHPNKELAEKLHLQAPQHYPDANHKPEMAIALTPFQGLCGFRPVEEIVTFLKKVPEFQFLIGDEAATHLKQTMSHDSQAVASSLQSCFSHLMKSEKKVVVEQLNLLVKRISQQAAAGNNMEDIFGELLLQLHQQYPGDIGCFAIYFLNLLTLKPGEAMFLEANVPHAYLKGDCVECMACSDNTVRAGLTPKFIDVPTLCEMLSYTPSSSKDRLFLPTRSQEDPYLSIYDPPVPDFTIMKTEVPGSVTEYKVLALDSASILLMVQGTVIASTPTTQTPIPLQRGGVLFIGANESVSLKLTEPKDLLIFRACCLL
The assay can be described thus: Confirmation of compounds inhibiting phosphomannose isomerase (PMI) via a fluorescence intensity assay using a high concentration of mannose 6-phosphate. [Related pubchem assays (depositor defined):AID1209, AID1220, AID1545, AID1553, AID1620].

Assay [2] deals with T1, Mannose-6-phosphate isomerase. The assay can be described thus: phosphomannose isomerase inhibition – biochemical, fluorescence intensity, confirmation (AID 1535).
The target of another assay is Phosphomannomutase 2 (Homo sapiens, UniProt O15305). The assay can be described thus: Counter screen SAR assay for PMM2 inhibitors via a fluorescence intensity assay. [Related pubchem assays (depositor defined):AID1545, AID1574].
The nature of assay [3]: Luminescence Cell-Based Dose Response HTS to Identify Activators of Luciferase Translation or Activity in H4-C Neuroglioblastoma Cells. [Related pubchem assays: 1829 (Project Summary), 1814 (Primary HTS)]. Format: functional.
Assay [4] is described as follows: Luminescence Cell-Based Dose Retest to Confirm Activators of 5'UTR Stem-Loop Driven Alpha-Synuclein mRNA Translation in H4 Neuroglioblastoma Cells. [Related pubchem assays (depositor defined):AID1813, AID1829]. The format is functional.
Assay [5] can be described thus: Luminescence Cell-Based Dose Response HTS to Identify Activators of 5'UTR Stem-Loop Driven Prion Protein mRNA Translation in H4-C Neuroglioblastoma Cells. [Related pubchem assays: 1829 (Project Summary), 1814 (Primary HTS)]. The format is functional.
Assay [6] can be described thus: Luminescence Cell-Based Dose Confirmation HTS to Identify Activators of 5'UTR Stem-Loop Driven Alpha-Synuclein mRNA Translation in H4 Neuroglioblastoma Cells. [Related pubchem assays: 1829 (Project Summary), 1814 (Primary HTS)]. The format is functional.
Assay [7] is described as follows: Luminescence Cell-Based Dose Response HTS to Identify Activators of Luciferase Translation or Activity in H4 […] Cells. [Related pubchem assays: 1829 (Project Summary), 1814 (Primary HTS)]. Format: functional.
Another assay deals with H4. The assay can be described thus: Luminescence Cell-Based Dose Response HTS to Identify Activators of 5'UTR Stem-Loop Driven Prion Protein mRNA Translation in H4 Neuroglioblastoma Cells. [Related pubchem assays: 1829 (Project Summary), 1814 (Primary HTS)]. The following applies: Homo sapiens. Format: functional.
Another assay has as its target T2, Coagulation factor XII (Homo sapiens, UniProt P00748).
T2 sequence (P00748 whole entry): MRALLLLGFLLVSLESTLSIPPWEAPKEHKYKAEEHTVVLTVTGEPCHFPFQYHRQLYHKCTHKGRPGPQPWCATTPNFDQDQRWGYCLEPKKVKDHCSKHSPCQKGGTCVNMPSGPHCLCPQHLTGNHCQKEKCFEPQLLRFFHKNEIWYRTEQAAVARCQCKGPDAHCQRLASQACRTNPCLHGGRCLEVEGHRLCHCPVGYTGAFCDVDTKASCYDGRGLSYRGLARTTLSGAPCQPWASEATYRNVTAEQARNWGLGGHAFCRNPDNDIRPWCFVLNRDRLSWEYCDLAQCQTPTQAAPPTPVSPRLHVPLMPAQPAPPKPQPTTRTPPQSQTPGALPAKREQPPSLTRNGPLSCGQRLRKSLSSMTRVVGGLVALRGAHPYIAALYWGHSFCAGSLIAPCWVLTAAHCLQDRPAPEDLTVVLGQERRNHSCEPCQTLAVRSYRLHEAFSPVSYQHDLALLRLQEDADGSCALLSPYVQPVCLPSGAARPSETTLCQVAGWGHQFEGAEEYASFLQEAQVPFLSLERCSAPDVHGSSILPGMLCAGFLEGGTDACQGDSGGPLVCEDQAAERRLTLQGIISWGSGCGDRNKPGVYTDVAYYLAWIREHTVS
Briefly: activated coagulation factor XII inhibitor potency, concentration-effect curve, cell-free (AID 716). Format: functional.

The target of assay [8] is Phosphoethanolamine/phosphocholine phosphatase (Homo sapiens, UniProt Q8TCT1). Briefly: SAR assay for compounds that inhibit PHOSPHO1. [Related pubchem assays (depositor defined):AID1545, AID1565, AID1574].
Another assay deals with Troponin, cardiac muscle (Homo sapiens, UniProt P19429+P45379+P63316). Briefly: Fluorescence-based biochemical high throughput dose response assay for activators of the calcium sensitivity of cardiac Regulated Thin Filaments (RTF). [Related pubchem assays (depositor defined):AID493008, AID493018, AID504382, AID504383]. Format: protein-complex assay.
The target of assay [9] is DNA damage-inducible transcript 3 protein (Mus musculus, UniProt P35639). The format is functional, Cricetulus griseus.
In the next assay the target is X-box-binding protein 1 (Homo sapiens, UniProt P17861). Format: functional, Cricetulus griseus.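 Note: confirmatory dose-response counter-screen serving a CHOP assay.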
Assay [10] has as its target T3, Runt-related transcription factor 1/Core-binding factor subunit beta (Homo sapiens, UniProt Q01196+Q13951). The assay can be described thus: disruptors of Runt domain/CBFb-SMMHC interaction – biochemical, FRET, Cerulean-Runt, Venus-CBFb-SMMHC, uHTS, […] (AID 1434). Format: protein assay.
Assay [11] concerns the target T3, Runt-related transcription factor 1/Core-binding factor subunit beta. Briefly: Runt domain/CBFb-SMMHC interaction disruptors – biochemical, TR-FRET (AID 1438). The format is protein assay. Background: TR-FRET usually uses a lanthanide donor and a delayed reading to cut background.
Another assay concerns the target Mu-type opioid receptor (Homo sapiens, UniProt P35372). The assay can be described thus: SAR Analysis of Antagonists of the MOR Receptor using an Image-Based Assay - Set 3. [Related pubchem assays (depositor defined):AID1777, AID1785, AID1786, AID1966, AID2133, AID2136, AID2284, AID2285, AID2420]. Format: functional.
Assay [12] addresses Delta-type opioid receptor (Homo sapiens, UniProt P41143). The assay can be described thus: SAR Analysis of Antagonists of the DOR Receptor using an Image-Based Assay - Set 3. [Related pubchem assays (depositor defined):AID1777, AID1785]. Format: functional.
Assay [13] has as its target T4, Kappa-type opioid receptor (Homo sapiens, UniProt P41145). Briefly: SAR analysis of small molecule antagonists of the kappa opioid receptor via a luminescent beta-arrestin assay - Set 3. [Related pubchem assays (depositor defined):AID1777, AID1778, AID1785, AID1786, AID1966, AID2133, AID2136, AID2285, AID2495]. The format is functional.
In assay [14] the target is T4, Kappa-type opioid receptor. The assay can be described thus: SAR analysis of Antagonists of the Kappa Opioid Receptor (KOR) using an Image-Based Assay - Set 3. [Related pubchem assays (depositor defined):AID1777, AID1785]. Format: functional.
In another assay the target is SUMO-activating enzyme (Homo sapiens, UniProt Q9UBT2). Briefly: blockers of UBC9-mediated SUMO conjugation – biochemical, AlphaScreen, SUMOylation inhibitor project, confirmation (AID 2018). Format: functional.
Assay [15] in a line: viability of PTEN-deleted HCT116 cells – cell-based, HCT116 PTEN knockout, dose response (AID 1047).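 Note: HCT116 colon tumor cells with PTEN knocked out; cells exposed to compound for 60 hours before readout; potency for loss of cell viability measured by luminescence.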 The format is functional.
Assay [16] can be described thus: viability of HCT116 lacking mutant beta-catenin – cell-based, human colon tumor, dose response (AID 1045).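 Note: HCT116 colon tumor cells with beta catenin knocked out; cells exposed to compound for 60 hours.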 Format: functional.
The nature of assay [17]: IC50 of Artemis nuclease activity blockers – biochemical, fluorescence intensity, dose response (AID 720701).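 Note: Artemis endonuclease enzyme.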 The format is functional.
The target of a further assay is Integrin alpha-4 (Homo sapiens, UniProt P13612). The assay can be described thus: allosteric modulators of alpha4 integrin VLA-4 – cell-based, LIBS antibody binding, flow cytometry, SAR follow-up (AID 488791). Format: functional. In general terms: In flow cytometry, cells or beads pass a laser one at a time.
Assay [18] addresses Alkaline phosphatase, placental type (Homo sapiens, UniProt P05187). The assay can be described thus: human placental alkaline phosphatase inhibition – biochemical, luminescence, confirmation (AID 1512). Format: functional.
Assay [19] deals with T5, Alkaline phosphatase, tissue-nonspecific isozyme (Homo sapiens, UniProt P05186).
T5 sequence (P05186 whole entry): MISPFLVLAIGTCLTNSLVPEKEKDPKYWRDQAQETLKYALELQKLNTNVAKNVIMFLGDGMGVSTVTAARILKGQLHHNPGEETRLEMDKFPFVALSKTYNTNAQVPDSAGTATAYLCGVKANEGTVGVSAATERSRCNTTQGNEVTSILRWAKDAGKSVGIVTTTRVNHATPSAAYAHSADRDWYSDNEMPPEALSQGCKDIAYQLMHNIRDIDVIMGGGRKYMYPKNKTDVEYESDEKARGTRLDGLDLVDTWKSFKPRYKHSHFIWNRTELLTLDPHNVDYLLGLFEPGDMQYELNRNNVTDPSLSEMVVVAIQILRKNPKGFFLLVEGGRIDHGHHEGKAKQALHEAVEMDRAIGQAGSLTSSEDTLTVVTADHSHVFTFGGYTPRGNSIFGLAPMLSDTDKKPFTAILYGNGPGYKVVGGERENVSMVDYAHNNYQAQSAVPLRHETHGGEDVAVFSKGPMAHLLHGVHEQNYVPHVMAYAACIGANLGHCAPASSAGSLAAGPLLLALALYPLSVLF
Briefly: potency against alkaline phosphatase TNAP – biochemical, luminescent, dose response, SAR follow-up (AID 1056).

Assay [20] deals with Cystic fibrosis transmembrane conductance regulator/Golgi-associated PDZ and coiled-coil motif-containing protein (Homo sapiens, UniProt P13569+Q9HD26). Briefly: potency against CAL PDZ-peptide interaction – biochemical, fluorescence polarization, Cerulean-tagged CAL PDZ, cherry-picks, dose response (AID 504773). Background: In fluorescence polarisation assays a small probe gives low polarisation when free and higher when bound to something large.

The target in assay [21] is NACHT, LRR and PYD domains-containing protein 3 (Homo sapiens, UniProt Q96P20). Briefly: NALP3 inhibitors in yeast, dose response, luminescent (AID 488799). Format: functional.

Each structure is given as a SMILES string. The source made the active and inactive calls. Bounds are passed on as bounds.

`O=c1c2ccc(O)cc2sn1C1CCCC1`: the IC50 (in [1]; in assay [2]; on Phosphomannomutase 2) was > 100 µM (inactive) throughout.

Regarding `O=C1Nc2ccccc2S/C1=C\C(=O)N1CCCC1`, the 50% effective concentration (EC50) was 13.2 µM (active) in [3]; > 195 µM (inactive) in assay [4]; 9.5 µM (active) in assay [5]; 0.264 µM (active) in assay [6]; 8.16 µM (active) in assay [7]; > 120 µM (not active) with H4.

Consider `O=C(NCc1n[nH]c(=S)n1-c1ccccc1)c1ccco1`, for which, at Coagulation factor XII, the IC50 was > 50 µM (inactive).

For the compound `Cc1ccc(C)c(-n2[se]c3ccccc3c2=O)c1`, the concentration for half-maximal inhibition (IC50) in assay [2] is 88 µM (active); on Phosphomannomutase 2, > 100 µM (inactive); in [8] it was 36 µM (inactive).

Regarding `O=[N+]([O-])c1ccc(/C=C/C2=NN(c3ccccc3)C(c3ccco3)C2)cc1` (stereo unspecified), the EC50 at Troponin, cardiac muscle is 0.397 µM (active).

With `Cc1ccc(NC(=O)c2cc(NC(=O)c3ccco3)ccc2N2CCCCC2)cc1`, in assay [9], the “Absolute IC50 (CHOP)” value came to 10 µM. For the same compound, at X-box-binding protein 1, the “Absolute IC50 (XBP1)” value was found to be 10 µM.

Regarding `C/C(=N\Nc1nc(-c2cc(C)ccc2C)cs1)c1cc2c(ccc3ccccc32)oc1=O`, the IC50 is > 100 µM (inactive) in assay [10] and 10.1 µM (active) in assay [11].

As for `O=C(Cn1c(=O)c2cccn2c2cccnc21)NCCCN1CCC(Cc2ccccc2)CC1`, the IC50 on Mu-type opioid receptor is > 32 µM (inactive); in [12], > 32 µM (inactive); in [13], 4.65 µM (active); in assay [14], 1.31 µM (active).

For `Cn1c(-c2ccc(C=O)s2)nc2c3ccccc3c3ccccc3c21`, the values for the IC50 (at SUMO-activating enzyme; in assay [17]) were > 100 µM (inactive) and > 20 µM (inactive), respectively. The half-maximal effective concentration (EC50) is 25.7 µM (active) in [15] and 24.9 µM (active) in [16].

Regarding `COC(=O)C1OC2(OC1C(=O)OC)c1ccccc1-c1ccccc12` (stereo unspecified), the EC50 on Integrin alpha-4 was 7.14 µM (active).

As for `COCCNC(=O)NC1(C(F)(F)F)Oc2cc(Cl)c(Cl)cc2O1`, the IC50 in [18] is > 100 µM (inactive).

Regarding `CC(C)NCC(=O)c1ccc(O)c(O)c1`, the IC50 in assay [19] was > 100 µM (inactive).

With `O=C(c1ccccc1)C(c1ccccc1)c1ccccc1`, in assay [20], the AC50 was > 56 µM (inactive).

In the case of `COc1cc(CNCCc2ccccc2)ccc1OCc1ccc(Cl)nc1`, the IC50 in [21] was 30.1 µM (active).
